The target in experiment [1] is T1, interaction between TLR4 and MyD88 (Mus musculus, UniProt Q9QUK6).
T1 construct: endogenous in cells; host or cells: BV-2 microglial cells
T1 sequence (Q9QUK6 26-835): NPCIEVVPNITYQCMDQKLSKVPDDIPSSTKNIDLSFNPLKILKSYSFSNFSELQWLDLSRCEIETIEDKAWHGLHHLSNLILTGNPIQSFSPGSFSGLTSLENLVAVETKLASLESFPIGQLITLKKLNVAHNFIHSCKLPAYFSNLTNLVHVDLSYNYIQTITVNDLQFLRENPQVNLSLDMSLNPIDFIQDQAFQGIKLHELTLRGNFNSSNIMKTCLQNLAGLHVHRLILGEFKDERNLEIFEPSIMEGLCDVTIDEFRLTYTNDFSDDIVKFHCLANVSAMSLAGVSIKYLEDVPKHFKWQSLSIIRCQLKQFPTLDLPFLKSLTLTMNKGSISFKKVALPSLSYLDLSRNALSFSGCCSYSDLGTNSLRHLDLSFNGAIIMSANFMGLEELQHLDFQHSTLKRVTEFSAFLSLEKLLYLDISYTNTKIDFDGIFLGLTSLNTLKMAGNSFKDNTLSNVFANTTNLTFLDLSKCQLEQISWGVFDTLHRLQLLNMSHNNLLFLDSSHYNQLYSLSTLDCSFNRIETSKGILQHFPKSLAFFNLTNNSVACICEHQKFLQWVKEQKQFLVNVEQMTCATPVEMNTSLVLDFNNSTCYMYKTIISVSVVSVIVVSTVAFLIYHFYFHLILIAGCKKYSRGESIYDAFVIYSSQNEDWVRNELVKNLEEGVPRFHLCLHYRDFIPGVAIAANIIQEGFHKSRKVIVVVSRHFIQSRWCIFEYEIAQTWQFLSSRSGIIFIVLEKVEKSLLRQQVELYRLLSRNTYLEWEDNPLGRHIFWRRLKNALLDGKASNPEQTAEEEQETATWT
In words: MyD88 immunoprecipitation / TLR4 western blot in BV-2 microglial cells. In kind it is cell-based. The following applies: BV-2 cells, peptide preincubated 1 h, LPS for 1 h, serum-free. Here is the method: FIG. 3(A-L). Selective disruption of TLR2 and MyD88 interaction by wtTIDM. In silico analyses of interactions of wtTIDM with TLR1, TLR4, TLR5, TLR6, TLR7, and TLR9. A rigid body interaction analyses were performed in pydock in silico analysis tool. […] G) BV-2 microglial cells preincubated with WtTIDM and mTIDM peptides for 1 h were stimulated with 1 μM fibrillar Aβ1-42 under serum-free condition. After 1 h, cellular extracts were immunoprecipitated with anti-MyD88 antibody followed by western blot of immunoprecipitates for TLR2. As control, cellular extracts were immunoprecipitated with normal IgG. Input was also immunoblotted with TLR2 and MyD88. H) Bands were scanned and values (TLR2/Input) presented as relative to control (n=2 replicates/condition in 3 independent experiments). Results were analyzed by two-sample t-tests. I) BV-2 microglial cells preincubated with wtTIDM and mTIDM peptides for 1 h were stimulated with LPS under serum-free condition. After 1 h, cellular extracts were immunoprecipitated with anti-MyD88 antibody followed by western blot of immunoprecipitates for TLR4. As control, cellular extracts were immunoprecipitated with normal IgG. Input was also immunoblotted with TLR4 and My D88. […] Results were analyzed by two-sample t-tests. […] Results were analyzed by two-sample t-tests.
Background: Immunoblotting shows a protein as a band on a membrane.

Experiment [2] has as its target T2, interaction between newly-formed cTLR2 and MyD88 (Mus musculus, UniProt Q9QUN7).
T2 construct: The cTLR2 (640-784 amino acids) tagged with c-myc was cloned in lenti vector; expressed in transfected cells; host or cells: BV-2 microglial cells transduced with pLenti-cMyc-cTlr2 lentivirions
In words: MyD88 immunoprecipitation / c-Myc western blot in BV-2 cells transduced with pLenti-cMyc-cTlr2. The following applies: transduced BV-2 cells, fibrillar Aβ1-42 for 1 h. In kind it is cell-based.

Another experiment has as its system 5×FAD Tg mice. The experiment is described as follows: Novel object recognition test in 5×FAD Tg mice. In kind it is in vivo, mouse. Particulars: vs untreated Tg or mTIDM-treated Tg mice. An excerpt: FIG. 6 (A-N). Intranasal delivery of wtTIDM, but not mTIDM, peptide inhibits neuronal apoptosis in vivo in the hippocampus and improves memory and learning in Tg mice. […] After 30 d of treatment, mice were sacrificed and hippocampal sections were double-labeled for TUNEL & NeuN (A). […] Hippocampal extracts of all groups of mice (n=4) were immunoblotted for cleaved caspase 3 (D). Actin was run as loading control. E) Bands were scanned and values (cleaved caspase 3/Actin) are presented as relative to non-Tg control. […] Protein levels of PSD-95. NR2A and GluR1 were monitored in hippocampal extracts by Western blot (F). Bands were scanned and values (G, PSD-95/Actin; H, NR2A/Actin; I, GluR1/Actin) are presented as relative to non-Tg control. […] Mice were tested for Barnes maze (J, latency; K, number of errors made) and T maze (L, number of positive turns; M, number of negative turns). Short-term memory was also monitored by novel object recognition test, which is represented by discrimination index (N). Eight mice (n=8) were used in each group and results were analyzed by one-way ANOVA.
Novel object recognition task was performed to monitor the short term memory as described by others (58) and us (57). Briefly, during training, mice were placed in a square novel box (20 inches long by 8 inches high) surrounded with infrared sensor. […]

The subject of another experiment is Tg-Tlr2−/− mice. In words: Plaques and memory in 5×FAD mice null for Tlr2 (Tg-Tlr2−/−). The following applies: 0.1 mg/kg body wt/2 d intranasal, 30 d. In kind it is in vivo, mouse. Here is the method: FIG. 24 (A-H). […] A) Tlr2−/− mice were bred with Tg (5×FAD mice) and representative PCR of Tlr2, App695 and Psen1 transgene DNA expression is shown for 6-month old non-Tg, Tg (5×FAD), Tg-Tlr2−/− (F7), and Tlr2−/− mice. Average body weight (B) and wet brain weight (C) of non-Tg, Tg, Tg-Tlr2−/−, and Tlr2−/− mice. For wet brain weight, the olfactory lobes and brainstem were removed. […] After 30 d of treatment, hippocampal sections were immunolabeled with 6E10 mAb (D). […] Mice were tested for Barnes maze (F, track plot; G, latency; H, number of errors made). Four mice (n=4) were used in each group. NS, not significant by two-sample t-tests.

T2 sequence (Q9QUN7 640-784): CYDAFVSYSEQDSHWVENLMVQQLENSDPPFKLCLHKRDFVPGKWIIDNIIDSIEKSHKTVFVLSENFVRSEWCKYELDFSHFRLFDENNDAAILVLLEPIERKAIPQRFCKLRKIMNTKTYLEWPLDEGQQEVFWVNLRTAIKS

In the case of `CC[C@H](C)[C@H](NC(=O)[C@H](CCCCN)NC(=O)[C@@H](NC(=O)[C@H](CCC(N)=O)NC(=O)[C@H](CCCNC(=N)N)NC(=O)[C@@H](N)CC(=O)O)[C@@H](C)CC)C(=O)N[C@@H](Cc1c[nH]c2ccccc12)C(=O)N[C@@H](Cc1ccccc1)C(=O)N[C@@H](CCC(N)=O)C(=O)N[C@@H](CC(N)=O)C(=O)N[C@@H](CCCNC(=N)N)C(=O)N[C@@H](CCCNC(=N)N)C(=O)N[C@@H](CCSC)C(=O)N[C@@H](CCCCN)C(=O)N[C@@H](Cc1c[nH]c2ccccc12)C(=O)N[C@@H](CCCCN)C(=O)N[C@@H](CCCCN)C(=O)N1CCC[C@H]1C(=O)NCC(=O)N[C@@H](C)C(=O)N[C@@H](Cc1c[nH]cn1)C(=O)N[C@@H](CCC(N)=O)C(=O)N[C@@H](CCCCN)C(=O)O` [wtTIDM, drqikiwfqnrrmkwkkPGAHQK], the “effect on LPS-increased interaction between TLR4 and MyD88” value in experiment [1] is “had no effect”. In addition, the “inhibition of interaction between newly-formed cTLR2 and MyD88” value in experiment [2] is “inhibited”. For the same compound, the “short-term memory, novel object recognition (discrimination index)” value in the experiment on 5×FAD Tg mice is “significant improvement”. In the experiment with Tg-Tlr2−/− mice, the “reduction of plaque load and improvement of spatial learning and memory in Tg-Tlr2−/− mice” value is recorded as “remained unable to do so”.

(Values after patent US12251422B2, “Compositions and methods for treating neurological and other disorders” (Rush University Medical Center, priority 2018, dated 2025).)
